Laboratory results taken from EP4610267A1, “CYCLIC DINUCLEOTIDES AND CONJUGATES THEREOF WITH ANTIBODIES” (priority 2024, dated 2025).
pEC50: −log10 of the molar value.

Tests used:
[1] = tested on: CT26 mouse colon carcinoma; experiment: CT26 mouse tumor model, intratumoral injection, tumor growth; format: in vivo, BALB/c mice; settings: 5mg/kg intratumorally on day 1, 4 and 8
Description: The CT26 mouse colon carcinoma cell line was obtained from American Type Culture Collection (ATCC®, CRL-2638). The cells were cultured in RPMI-1640 medium containing 10% fetal bovine serum, 2 mM glutamine, 100 units/mL penicillin G sodium, and 100 µg/mL streptomycin sulfate at 37 °C in a humidified incubator with 5% CO2. On the day of tumor implantation in ten-week-old female BALB/c mice (Charles River Laboratories), CT26 cells harvested during the exponential growth phase were resuspended in phosphate-buffered saline (PBS) at a concentration of 1 × 10^7 cells/mL. Tumors were initiated by subcutaneous implantation of 1 × 10^6 CT26 cells (in a 0.1 mL suspension) into the right flank of each test animal. Tumor dimensions were measured in two directions, and tumor volumes were calculated using the formula (L × W^2)/2. Animals were pair matched when tumor reached volume 100 - 150 mm^3 (designated as day 1) and injected intratumorally (i.t.) on day 1, 4 and 8 with 5mg/kg or 1.5mg/kg Compound 2.2 or PBS in total volume 20 µL.

STING REF = molecular target: T1, STING REF (Homo sapiens, UniProt Q86WV6); experiment: 293T STING digitonin reporter assay (REF haplotype); format: cell-based; settings: digitonin permeabilised 293T reporter cells
T1 construct: expressed in transfected cells
T1 sequence (Q86WV6 whole entry): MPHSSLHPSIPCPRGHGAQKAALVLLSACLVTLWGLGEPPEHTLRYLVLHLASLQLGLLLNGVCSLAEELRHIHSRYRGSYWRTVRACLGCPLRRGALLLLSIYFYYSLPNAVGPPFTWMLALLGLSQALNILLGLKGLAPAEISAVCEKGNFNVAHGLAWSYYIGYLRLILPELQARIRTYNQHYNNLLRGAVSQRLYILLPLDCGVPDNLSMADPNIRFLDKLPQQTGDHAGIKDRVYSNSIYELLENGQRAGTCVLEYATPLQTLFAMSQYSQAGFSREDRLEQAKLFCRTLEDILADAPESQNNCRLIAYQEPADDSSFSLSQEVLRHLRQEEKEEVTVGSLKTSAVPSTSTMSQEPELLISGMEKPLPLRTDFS
Description: Digitonin Assay with 293T Reporter Cells. The generation of 293T reporter cells stably expressing different STING protein haplotypes (WT, HAQ, REF, AQ, or Q) was described previously (Novotna et al, J. Med. Chem. 2019,62, 10676). The cells were seeded at a density of 250 000 cells per cm^2 into 96 well white poly(D-lysine) coated plates in 100 µL of DMEM with high glucose supplemented with 10% heat inactivated FBS. Next day, the medium was removed, and compounds were added in 3-fold serial dilutions in a digitonin buffer containing 50 mM HEPES (pH 7.0), 100 mM KCl, 3 mM MgClz, 0.1 mM DTT, 85 mM sucrose, 0.2% (w/w) BSA, 1 mM ATP, 0.1 mM GTP, and 10 µg/mL digitonin A. After 30 min incubation at 37 °C with 5% CO2, the digitonin buffer was removed, cells were washed once with 100 µL of the cultivation medium, and 100 µL of fresh medium was added to each well. The plates with cells were further incubated for 5 h at 37 °C with 5% CO2. Thereafter, 50 µL of the medium was removed, and 30 µL of Bright-Glo Luciferase Assay System reagent was added to each well. […] Nonlinear regression curve fit with standard slope was used for EC50 value calculations. The EC50 value represents CDN concentration that gives half-maximal response of firefly luciferase in the 293T reporter assay.

plasma cytokines = experiment: In vivo plasma cytokine induction after single i.v. injection (multiplex ELISA, Luminex); settings: single i.v. 1.7mg/kg, Balb/C mice (Fig. 7)
Description: Compound 3.3 was conjugated to the engineered light chain C110 and heavy chain C375 of anti-Her2 mAb (mAb3) as described above (mAb3-3.3). Furthermore, the compound was also conjugated to anti-Her2 mAb (mAb2) via inter-chain Cys (mAb2-3.3). A single intravenous injection of 5 mg/kg mAb2-3.3 (DAR 3.8) and 5 mg/kg mAb3-3.3 (DAR 3.6) was administered to Balb/C mice via tail vein injection. Blood samples were collected from the injected animals at 2, 4, 8, and 20 hours post-injection, and plasma cytokines were measured using multiplex ELISA (Luminex).
Compound 3.3 was conjugated to anti-TROP2 mAb4 via inter-chain Cys and to the engineered light chain C110 and heavy chain C375 of anti-TROP2 mAb5, as described above. […] Blood samples were collected from the injected animals at 2, 4, 8, and 20 hours post-injection, and plasma cytokines were measured using multiplex ELISA (Luminex).

## Nc1ncnc2c1ncn2[C@@H]1O[C@@H]2OCP(=O)(S)O[C@@H]3[C@H](F)[C@@H](COP(=O)(S)OC[C@H]2[C@H]1F)O[C@H]3n1cnc2c(=O)[nH]cnc21 (single isomer, unassigned) [Compound 2.2]
[1]
  animals tumor free on day 65 (out twelve tumor bearing animals): Twelve
STING REF
  pEC50: 7.30
Plasma cytokines
  plasma cytokine levels: high plasma levels
